Among the data in patent EP1953147A1, “HETEROCYCLIC COMPOUND AND MEDICINAL APPLICATION THEREOF” (priority 2005, dated 2007) are IC50 values, retold here.

Counter-ions that a name gives are not always drawn.

For the test, the system named is ΔG/SEAP/HCV E1E2. Kind of test: Effect of test substance on cell infection with HCV pseudotype virus (SEAP reporter assay in HepG2 cells). The format is cell-based. The note with it: Hepatitis C virus.
As a reminder, the IC50 is the point on the concentration scale where inhibition reaches its midpoint. The molecule `O=C(O)c1ccc(-c2nn(-c3cc(N4CC[C@H](O)C4)ccc3C(F)(F)F)c(=O)c3c2CCC3)cc1` [Example 80, 4-{3-[5-((S)-3-hydroxy-pyrrolidin-1-yl)-2-trifluoromethyl-phenyl]-4-oxo-4,5,6,7-tetrahydro-3H-cyclopenta[d]pyridazin-1-yl}-benzoic acid] registered an IC50 of 100 to 10000 nM. To `COCCNC(=O)CN1CCc2c(-c3cc(OC)cc(OC)c3)nn(-c3cc(N4CC[C@H](O)C4)ccc3C(F)(F)F)c(=O)c21` [Example 36, 2-{4-(3,5-dimethoxy-phenyl)-6-[5-((S)-3-hydroxy-pyrrolidin-1-yl)-2-trifluoromethyl-phenyl]-7-oxo-2,3,6,7-tetrahydro-pyrrolo[2,3-d]pyridazin-1-yl}-N-(2-methoxy-ethyl)-acetamide] belongs less than 100 nM; to `COc1cc(OC)cc(-c2nn(-c3cc(N4CC[C@H](O)C4)ccc3C(F)(F)F)c(=O)c3c2CCN3C(=O)OC(C)C)c1` [Example 155, 4-(3,5-dimethoxy-phenyl)-6-[5-((S)-3-hydroxy-pyrrolidin-1-yl)-2-trifluoromethyl-phenyl]-7-oxo-2,3,6,7-tetrahydro-pyrrolo[2,3-d]pyridazine-1-carboxylic acid isopropyl ester], less than 100 nM.

In turn, `COc1cc(C)cc(-c2nn(-c3cc(N4CC[C@H](O)C4)ccc3C(F)(F)F)c(=O)c3c2CCC3)c1` [Example 7, 2-[5-((S)-3-hydroxy-pyrrolidin-1-yl)-2-trifluoromethyl-phenyl]-4-(3-methoxy-5-methyl-phenyl)-2,5,6,7-tetrahydro-cyclopenta[d]pyridazin-1-one] showed an IC50 of less than 100 nM. `CCOC(=O)N1CCc2c(-c3cc(O)cc(O)c3)nn(-c3cc(N4CC[C@H](O)C4)ccc3C(F)(F)F)c(=O)c21` [Example 61, 4-(3,5-dihydroxy-phenyl)-6-[5-((S)-3-hydroxy-pyrrolidin-1-yl)-2-trifluoromethyl-phenyl]-7-oxo-2,3,6,7-tetrahydro-pyrrolo[2,3-d]pyridazine-1-carboxylic acid ethyl ester] showed an IC50 of 100 to 10000 nM. In the case of `COc1cc(OC)cc(-c2nn(-c3cc(NCCCC(N)=O)ccc3C(F)(F)F)c(=O)c3c2CCC3)c1` [Example 152, 4-{3-[4-(3,5-dimethoxy-phenyl)-1-oxo-1,5,6,7-tetrahydro-cyclopenta[d]pyridazin-2-yl]-4-trifluoromethyl-phenylamino}-butyramide], the IC50 is less than 100 nM. Then `COc1cc(OC)cc(-c2nn(-c3cc(N4CC(CO)C4)ccc3C(F)(F)F)c(=O)c3c2CCCN3CCO)c1` [Example 1-40, 5-(3,5-dimethoxy-phenyl)-1-(2-hydroxy-ethyl)-7-[5-(3-hydroxymethyl-azetidin-1-yl)-2-trifluoromethylphenyl]-1,3,4,7-tetrahydro-2H-pyrido[2,3-d]pyridazin-8-one], with less than 100 nM; and `O=c1c2c(c(-c3ccccc3Br)nn1-c1cc(N3CC[C@H](O)C3)ccc1C(F)(F)F)CCC2` [Example 104, 4-(2-bromo-phenyl)-2-[5-((S)-3-hydroxy-pyrrolidin-1-yl)-2-trifluoromethyl-phenyl]-2,5,6,7-tetrahydro-cyclopenta[d]pyridazin-1-one], with 100 to 10000 nM; and `O=c1c2c(c(-c3cccc(C(F)(F)F)c3)nn1-c1cc(N3CC[C@H](O)C3)ccc1C(F)(F)F)CCC2` [Example 74, 2-[5-((S)-3-hydroxy-pyrrolidin-1-yl)-2-trifluoromethyl-phenyl]-4-(3-trifluoromethyl-phenyl)-2,5,6,7-tetrahydro-cyclopenta[d]pyridazin-1-one], with less than 100 nM. Then `COc1cc(OC)cc(-c2nn(-c3cc(NCCCO)ccc3C(F)(F)F)c(=O)c3c2CCC3)c1` [Example 130, 4-(3,5-dimethoxy-phenyl)-2-[5-(3-hydroxy-propylamino)-2-trifluoromethyl-phenyl]-2,5,6,7-tetrahydro-cyclopenta[d]pyridazin-1-one], with less than 100 nM; and `COc1cc(OC)cc(-c2nn(-c3cc(NCCNC(C)=O)ccc3C(F)(F)F)c(=O)c3c2CCC3)c1` [Example 117, N-(2-{3-[4-(3,5-dimethoxy-phenyl)-1-oxo-1,5,6,7-tetrahydro-cyclopenta[d]pyridazin-2-yl]-4-trifluoromethyl-phenylamino}-ethyl)-acetamide], with less than 100 nM; and `COc1cc(OC)cc(-c2nn(-c3ccc(N(C)C)cc3C(F)(F)F)c(=O)c3c2CCC3)c1` [Example 108, 4-(3,5-dimethoxy-phenyl)-2-(4-dimethylamino-2-trifluoromethyl-phenyl)-2,5,6,7-tetrahydro-cyclopenta[d]pyridazin-1-one], with 100 to 10000 nM. `COc1cc(OC)cc(-c2nn(-c3cc(N4CC[C@H](O)C4)ccc3C(F)(F)F)c(=O)c3c2CC(C)N3)c1` (stereo partly drawn) [Example 20, 4-(3,5-dimethoxy-phenyl)-6-[5-((S)-3-hydroxy-pyrrolidin-1-yl)-2-trifluoromethyl-phenyl]-2-methyl-1,2,3,6-tetrahydro-pyrrolo[2,3-d]pyridazin-7-one] showed an IC50 of less than 100 nM. `CNCCNc1ccc(C(F)(F)F)c(-n2nc(-c3cc(OC)cc(OC)c3)c3c(c2=O)CCC3)c1` [Example 157, 4-(3,5-dimethoxy-phenyl)-2-[5-(2-methylamino-ethylamino)-2-trifluoromethyl-phenyl]-2,5,6,7-tetrahydro-cyclopenta[d]pyridazin-1-one hydrochloride] came in with an IC50 of 100 to 10000 nM. Then `CCN1CCc2c(-c3cc(OC)cc(OC)c3)nn(-c3cc(N4CC[C@H](O)C4)ccc3C(F)(F)F)c(=O)c21` [Example 55, 4-(3,5-dimethoxy-phenyl)-1-ethyl-6-[5-((S)-3-hydroxy-pyrrolidin-1-yl)-2-trifluoromethyl-phenyl]-1,2,3,6-tetrahydro-pyrrolo[2,3-d]pyridazin-7-one], with less than 100 nM; and `COc1cc(OC)cc(-c2nn(-c3cc(N4CCCC4=O)ccc3C(F)(F)F)c(=O)c3c2CCC3)c1` [Example 150, 4-(3,5-dimethoxy-phenyl)-2-[5-(2-oxo-pyrrolidin-1-yl)-2-trifluoromethyl-phenyl]-2,5,6,7-tetrahydro-cyclopenta[d]pyridazin-1-one], with less than 100 nM; and `COc1cc(C)cc(-c2nn(-c3cc(-c4cccnn4)ccc3C(F)(F)F)c(=O)c3c2CCC3)c1` [Example 1-4, 4-(3-methoxy-5-methyl-phenyl)-2-[5-(pyridazin-3-yl)-2-trifluoromethyl-phenyl]-2,5,6,7-tetrahydro-cyclopenta[d]pyridazin-1-one], with less than 100 nM. As to `COc1cc(OC)cc(-c2nn(-c3cc(NCCCC(=O)N(C)C)ccc3C(F)(F)F)c(=O)c3c2CCC3)c1` [Example 154, 4-{3-[4-(3,5-dimethoxy-phenyl)-1-oxo-1,5,6,7-tetrahydro-cyclopenta[d]pyridazin-2-yl]-4-trifluoromethyl-phenylamino}-N,N-dimethyl-butyramide], the concentration for half-maximal inhibition (IC50) was less than 100 nM. The molecule `COc1cc(OC)cc(-c2nn(-c3cc(NCCCNC(=O)OC(C)(C)C)ccc3C(F)(F)F)c(=O)c3c2CCC3)c1` [Example 129, (3-{3-[4-(3,5-dimethoxy-phenyl)-1-oxo-1,5,6,7-tetrahydro-cyclopenta[d]pyridazin-2-yl]-4-trifluoromethyl-phenylamino}-propyl)-carbamic acid tert-butyl ester] yielded a 50% inhibitory concentration (IC50) of less than 100 nM. Then `CCCOc1ccc(C(F)(F)F)c(-n2nc(-c3cc(OC)cc(OC)c3)c3c(c2=O)CCC3)c1` [Example 53, 4-(3,5-dimethoxy-phenyl)-2-(5-propoxy-2-trifluoromethyl-phenyl)-2,5,6,7-tetrahydro-cyclopenta[d]pyridazin-1-one], with less than 100 nM; and `COc1cc(OC)cc(-c2nn(-c3cccc(N4CC[C@H](O)C4)n3)c(=O)c3c2CCC3)c1` [Example 1-7, 4-(3,5-dimethoxy-phenyl)-2-[6-((S)-3-hydroxy-pyrrolidin-1-yl)-pyridin-2-yl]-2,5,6,7-tetrahydro-cyclopenta[d]pyridazin-1-one], with 100 to 10000 nM; and `COc1cc(OC)cc(-c2nn(-c3cc(N4CCC(=O)C4)ccc3C(F)(F)F)c(=O)c3c2CCN3)c1` [Example 25, 4-(3,5-dimethoxy-phenyl)-6-[5-(3-oxo-pyrrolidin-1-yl)-2-trifluoromethyl-phenyl]-1,2,3,6-tetrahydro-pyrrolo[2,3-d]pyridazin-7-one], with less than 100 nM.

Molecule `COc1cc(OC)cc(-c2nn(-c3cc(N4CC[C@H](O)C4)ccc3C(F)(F)F)c(=O)c3c2OCC3)c1` [Example 1-35, 7-(3,5-dimethoxy-phenyl)-5-[5-((S)-3-hydroxy-pyrrolidin-1-yl)-2-trifluoromethyl-phenyl]-3,5-dihydro-2H-furo[2,3-d]pyridazin-4-one] yielded an IC50 of less than 100 nM. As to `COc1cc(C)cc(-c2nn(-c3cc(N4CC[C@@H](O)C4)ccc3C(F)(F)F)c(=O)c3c2CCN3)c1` [Example 22, 6-[5-((R)-3-hydroxy-pyrrolidin-1-yl)-2-trifluoromethyl-phenyl]-4-(3-methoxy-5-methyl-phenyl)-1,2,3,6-tetrahydro-pyrrolo[2,3-d]pyridazin-7-one], the concentration for half-maximal inhibition (IC50) was less than 100 nM. The molecule `COc1cc(OC)cc(-c2nn(-c3cc(CCCO)ccc3C(F)(F)F)c(=O)c3c2CCC3)c1` [Example 121, 4-(3,5-dimethoxy-phenyl)-2-[5-(3-hydroxy-propyl)-2-trifluoromethyl-phenyl]-2,5,6,7-tetrahydro-cyclopenta[d]pyridazin-1-one] gave an IC50 of less than 100 nM. As for `COc1cc(OC)cc(-c2nn(-c3cc(N4CC(CO)C4)ccc3C(F)(F)F)c(=O)c3c2CCN3)c1` [Example 1-42, 4-(3,5-dimethoxy-phenyl)-6-[5-(3-hydroxymethyl-azetidin-1-yl)-2-trifluoromethyl-phenyl]-1,2,3,6-tetrahydro-pyrrolo[2,3-d]pyridazin-7-one], the half-inhibitory concentration (IC50) is less than 100 nM. As to `COc1cc(OC)cc(-c2nn(-c3cc(NCCO)ccc3C(F)(F)F)c(=O)c3c2CCC3)c1` [Example 91, 4-(3,5-dimethoxy-phenyl)-2-[5-(2-hydroxy-ethylamino)-2-trifluoromethyl-phenyl]-2,5,6,7-tetrahydro-cyclopenta[d]pyridazin-1-one], the concentration for half-maximal inhibition (IC50) was less than 100 nM.
